Assay results published in patent US9000022B2 (Exelixis Patent Company LLC, priority 2005, dated 2015).

Test system: LXRα and/or LXRβ
Test: Co-transfection assay (LXRE luciferase reporter, CV-1 cells)
Format: cell-based, human
Conditions: tested as described in Example 33; IC50 or EC50 for LXRα and/or LXRβ, isoform not specified; read-out: activity (IC50 or EC50 for LXR)
How it was run: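 Luciferase signal measures LXR-RXR transcriptional activation in transiently transfected CV-1 cells carrying human LXRα or LXRβ, RXRα and a single-copy LXRE reporter. Cells were exposed to compound for 20 h at 37 °C with at most 1% DMSO, using 10 μM final for screening. Potency was derived from 4-parameter fits of 8-point, half-log dose curves averaged over ≥3 runs, and efficacy was expressed as % of a reference agonist.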

| SMILES | IC50 or EC50 (potency, activation or inhibition) |
| --- | --- |
| CC(C)(O)c1cn(-c2ccc(-c3ccc4c(c3)S(=O)(=O)CC4O)cc2Cl)c(-c2c(F)cccc2Cl)n1 (stereo not shown) [Example 469, 6-{3-chloro-4-[2-(2-chloro-6-fluorophenyl)-4-(1-hydroxy-1-methylethyl)-1H-imidazol-1-yl]phenyl}-2,3-dihydro-1-benzo-thiophene-3-ol 1,1-dioxide] | 1 to 10 µM |
| CS(=O)(=O)c1cccc(-c2ccc(-n3cc(C(=O)NCCO)nc3-c3c(Cl)cccc3Cl)c(Cl)c2)c1 [Example 470, 1-(3-chloro-3′-(methylsulfonyl)biphenyl-4-yl)-2-(2,6-dichlorophenyl)-N-(2-hydroxyethyl)-1H-imidazole-4-carboxamide] | < 1 µM |
| CCS(=O)(=O)c1cccc(-c2ccc(-n3cc(C(=O)NCCO)nc3-c3c(Cl)cccc3Cl)c(Cl)c2)c1 [Example 471, 1-(3-chloro-3′-(ethylsulfonyl)biphenyl-4-yl)-2-(2,6-dichlorophenyl)-N-(2-hydroxyethyl)-1H-imidazole-4-carboxamide] | < 1 µM |
| CC(C)(O)CNC(=O)c1cn(-c2ccc(-c3cccc(S(C)(=O)=O)c3)cc2Cl)c(-c2c(Cl)cccc2Cl)n1 [Example 472, 1-(3-chloro-3′-(methylsulfonyl)biphenyl-4-yl)-2-(2,6-dichlorophenyl)-N-(2-hydroxy-2-methylpropyl)-1H-imidazole-4-carboxamide] | < 1 µM |
| CCS(=O)(=O)c1cccc(-c2ccc(-n3cc(C(=O)NCC(C)(C)O)nc3-c3c(Cl)cccc3Cl)c(Cl)c2)c1 [Example 473, 1-(3-chloro-3′-(ethylsulfonyl)biphenyl-4-yl)-2-(2,6-dichlorophenyl)-N-(2-hydroxy-2-methylpropyl)-1H-imidazole-4-carboxamide] | < 1 µM |
| CC(C)(O)c1cn(-c2ccc(-c3cccc(S(C)(=O)=O)c3)cc2)c(Cc2cc(Cl)ccc2F)n1 [Example 474, 2-(2-(5-chloro-2-fluorobenzyl)-1-(3′-(methylsulfonyl)biphenyl-4-yl)-1H-imidazol-4-yl)propan-2-ol] | < 1 µM |
| CC(C)(O)c1cn(-c2ccc(-c3ccc(CO)cc3)cc2)c(-c2cccc(Cl)c2Cl)n1 [Example 475, 2-(2-(2,3-dichlorophenyl)-1-(4′-(hydroxymethyl)biphenyl-4-yl)-1H-imidazol-4-yl)propan-2-ol] | 1 to 10 µM |
| CC(C)(O)c1cn(-c2ccc(-c3cccc(CO)c3)cc2)c(-c2cccc(Cl)c2Cl)n1 [Example 476, 2-(2-(2,3-dichlorophenyl)-1-(3′-(hydroxymethyl)biphenyl-4-yl)-1H-imidazol-4-yl)propan-2-ol] | 1 to 10 µM |
| CC(C)(O)c1ccc(-c2ccc(-n3cc(C(C)(C)O)nc3-c3cccc(Cl)c3Cl)cc2)cc1 [Example 477, 2-(2-(2,3-dichlorophenyl)-1-(4′-(2-hydroxypropan-2-yl)biphenyl-4-yl)-1H-imidazol-4-yl)propan-2-ol] | 1 to 10 µM |
| CC(C)(CO)c1cn(-c2ccc(-c3cccc(S(C)(=O)=O)c3)cc2)c(-c2c(Cl)cccc2Cl)n1 [Example 479, 2-(2-(2,6-dichlorophenyl)-1-(3′-(methylsulfonyl)biphenyl-4-yl)-1H-imidazol-4-yl)-2-methylpropan-1-ol] | < 1 µM |
| CC(C)(CO)NC(=O)c1cn(-c2ccc(-c3cccc(C(C)(C)O)c3)cc2Cl)c(-c2c(Cl)cccc2Cl)n1 [Example 480, 1-(3-chloro-3′-(2-hydroxypropan-2-yl)biphenyl-4-yl)-2-(2,6-dichlorophenyl)-N-(1-hydroxy-2-methylpropan-2-yl)-1H-imidazole-4-carboxamide] | < 1 µM |
| CC(C)(CO)NC(=O)c1cn(-c2ccc(-c3cccc(S(C)(=O)=O)c3)cc2)c(-c2c(Cl)cccc2Cl)n1 [Example 481, 2-(2,6-dichlorophenyl)-N-(1-hydroxy-2-methylpropan-2-yl)-1-(3′-(methylsulfonyl)biphenyl-4-yl)-1H-imidazole-4-carboxamide] | < 1 µM |
| CCS(=O)(=O)c1cccc(-c2ccc(-n3cc(C(C)(C)O)nc3Cc3cc(Cl)ccc3F)cc2)c1 [Example 482, 2-(2-(5-chloro-2-fluorobenzyl)-1-(3′-(ethylsulfonyl)biphenyl-4-yl)-1H-imidazol-4-yl)propan-2-ol] | < 1 µM |
